Assay results taken from patent publication US20170028005A1, “NATURAL SWEETENER” (NATGOOD IP, LLC, priority 2014, published 2017).
Blank lines part the entries; values can stand above or below the molecule they belong to.

How the values were obtained:
blood glucose response [1] = test: A Repression Test; type: in vivo; design: key: PASS: pass the repression test when then blood glucose response is much lower than expected for the combination of; conditions: product (e.g. cupcake) with other nutritive carbohydrates
Procedure: Under controlled study scenario subjects fast, then consume a product (e.g. a cupcake) that contains other nutritive carbohydrates and the glycemic response is assessed by established methods. The glycemic response to the nutritive carbohydrates is compared to the glycemic response to the nutritive carbohydrates in the presence of the sweetener or sugar.

blood glucose response [2] = test: A Glycemic Response Test; type: in vivo; conditions: 30 grams in water after fast; blood glucose every 15 minutes for 90 minutes
Procedure: Under an Institutional Review Board approved, controlled clinical trial, subjects undergo a pre-test fast for at least 20 hours and then consume 30 grams of glucose, or an equal amount of sweetener in water. Blood glucose measurements are then made every 15 minutes for 90 minutes and the blood glucose response is recorded. A sweetener is considered to pass the test when then blood glucose response is less than 5% of glucose.

blood glucose level [3] = conditions: values used for the expected GI; cited from earlier work
blood glucose level [4] = test: Glycemic index (GI) of NSC formulations (Example 2); type: in vivo, human
Procedure: Glycemic index can be measured by any suitable methodology. For example, to determine a food's GI value, measured portions of the food containing 50 grams of available carbohydrate (or 25 grams of available carbohydrate for foods that contain lower amounts of carbohydrate) may be fed to 10 healthy people after an overnight fast. Finger-prick blood samples can be taken at 15-30 minute intervals over the next two hours. These blood samples can be used to construct a blood sugar response curve for the two hour period. The incremental area under the curve (iAUC) is calculated to reflect the total rise in blood glucose levels after eating the test food. The GI value is calculated by dividing the iAUC for the test food by the iAUC for the reference food (same amount of glucose) and multiplying by 100. The average of the GI ratings from all ten subjects is designated as the GI for that food. […] The effect on the GI response for different NSC formulations was assessed. Four formulations, designated F1-F4, containing tagatose, monkfruit, stevia extract, erythritol, xanthan gum and either maltitol or lactitol were prepared as indicated in Table 1. The glycemic index for each formulation was calculated based on the glycemic index for the individual components taking into account the weight percent of the component in the formulation. Monkfruit, xanthan gum, and stevia extract have a glycemic index of 0, erythritol has a glycemic index of 1 while tagatose has a glycemic index of 3. Maltitol has a glycemic index of 35 while lactitol has a glycemic index of 5. Fifteen subjects were evaluated and the GI calculated as described previously herein.

The Caramelization Test = type: physicochemical; conditions: 1 cup sweetener with 1/2 cup water until it browns
From the text: 1 cup of caramelized sugar or 1 cup of sweetener is mixed with ½ cup of water and swirled to mix until it browns. A sweetener is considered to pass the test and be enough like sugar when it browns within 25% of the time when the sugar browns.

[5] = Acute randomized controlled trial: adverse events symptom score; type: in vivo, human
Procedure: An acute randomized controlled trial was carried out to investigate the effects of an NSC of the type disclosed herein on postprandial insulin, glucose and fructose responses.
Subjects (N=15) men and non-pregnant, non-lactating women, 18-75 years of age each with a BMI of 18-40 kg/m^2 inclusive and normal glycemia and (i) fasting serum glucose <126 mg/dl (<7.0 mmol/l) (or in whole blood ≦6.1 mmol/L); (ii) blood pressure <130/85; (iii) no prescription drugs within 1 month of the first study visit after screening except for the birth control pill, lipid lowering medications or small doses of anxiolytics/sedatives to assist sleeping; and (iv) no major illness or surgery requiring hospitalization within 3 months of the first study visit after screening.
The test foods consisted of 2 isovolumetric beverages: 30 g sucrose control and 30 g of sweetener blend dissolved in 500 ml water. The sucrose test meal acted as the control. Test meals were administered in a randomized order.
Adverse events reported following ingestion of the meals containing either an NSC of the type disclosed herein or sucrose included bloating, belching, nausea, diarrhea and flatulence. Each issue was scored and record for the time period indicated in Table 5 which provides the symptom score (mm) for: Bloating, Belching, Nausea, Diarrhea and Flatulence at 0 min, 120 min, before Dinner (D) and before breakfast (B).

Compound: O=C(CO)C(O)C(O)C(O)CO (stereo not shown) [Allulose]
Repression test (blood glucose response [1]): PASS | Glycemic test (blood glucose response [2]): PASS (pass the test when then blood glucose response is less than 5% of glucose)

Compound: OC[C@@H](O)[C@@H](O)CO [Erythritol, erythritol]
Repression test (blood glucose response [1]): FAIL | Glycemic test (blood glucose response [2]): PASS (pass the test when then blood glucose response is less than 5% of glucose) | glycemic index of individual component (blood glucose level [3]): 1

Compound: OC[C@@H](O)[C@@H](O[C@H]1O[C@H](CO)[C@@H](O)[C@H](O)[C@H]1O)[C@H](O)[C@@H](O)CO [Maltitol, maltitol]
glycemic index of individual component (blood glucose level [3]): 35

Compound: OC[C@H]1O[C@@](CO)(O[C@H]2O[C@H](CO)[C@@H](O)[C@H](O)[C@H]2O)[C@@H](O)[C@@H]1O [Sugar, sucrose]
Expected GI (blood glucose level [4]; calculated from GI of individual components and their weight percent): 65 | Observed GI (blood glucose level [4]; fifteen subjects): 65 | Glycemic Index (blood glucose level [4]; sweetener ingredient of the cake mix, Table 2): 65 for sugar | Caramelization test (The Caramelization Test): PASS (pass the test and be enough like sugar when it browns within 25% of the time when the sugar browns) | Repression test (blood glucose response [1]): FAIL | Glycemic test (blood glucose response [2]): FAIL | Belching symptom score ([5]; 0 min): 0.60 mm | Bloating symptom score ([5]; 0 min): 7.93 mm | Diarrhea symptom score ([5]; 0 min): 0.27 mm | Flatulence symptom score ([5]; 0 min): 1.47 mm | Nausea symptom score ([5]; 0 min): 0.33 mm | Belching symptom score ([5]; 120 min): 0.40 mm | Bloating symptom score ([5]; 120 min): 4.67 mm | Diarrhea symptom score ([5]; 120 min): 0.80 mm | Flatulence symptom score ([5]; 120 min): 1.40 mm | Nausea symptom score ([5]; 120 min): 1.87 mm | Belching symptom score ([5]; before Dinner (D)): 1.79 mm | Bloating symptom score ([5]; before Dinner (D)): 5.43 mm | Diarrhea symptom score ([5]; before Dinner (D)): 6.93 mm | Flatulence symptom score ([5]; before Dinner (D)): 8.93 mm | Nausea symptom score ([5]; before Dinner (D)): 2.57 mm | Belching symptom score ([5]; before breakfast (B)): 0.57 mm | Bloating symptom score ([5]; before breakfast (B)): 5.71 mm | Diarrhea symptom score ([5]; before breakfast (B)): 5.79 mm | Flatulence symptom score ([5]; before breakfast (B)): 7.50 mm | Nausea symptom score ([5]; before breakfast (B)): 0.57 mm

Caramelization test (The Caramelization Test): FAIL-
Compound: O=C(CO)[C@@H](O)[C@@H](O)[C@H](O)CO [Tagatose, (3S,4S,5R)-1,3,4,5,6-pentahydroxy-hexan-2-one]
Repression test (blood glucose response [1]): FAIL | Glycemic test (blood glucose response [2]): PASS (pass the test when then blood glucose response is less than 5% of glucose) | glycemic index of individual component (blood glucose level [3]): 3

Compound: OC[C@@H](O)[C@@H](O[C@@H]1O[C@H](CO)[C@H](O)[C@H](O)[C@H]1O)[C@H](O)[C@@H](O)CO [lactitol]
glycemic index of individual component (blood glucose level [3]): 5
